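Interpolation was linear, between the two tested concentrations surrounding the appropriate level; five concentrations were tested over 48 hours in 96-well plates. GI50 is the concentration that inhibits growth by half. TGI: concentration producing complete growth inhibition.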
Experiments:
Experiment in all cases: NCI-60 cell line screen, 48 h
[1] = system: A549 NSCLC
[2] = system: CCRF-CEM leukemia
[3] = system: KM12 colon
[4] = system: LOX IMVI melanoma
[5] = system: MDA-MB-231 breast
[6] = system: NCI-H226 lung
[7] = system: SF-268 CNS
[8] = system: SF-539 CNS
[9] = system: SK-MEL-5 melanoma
[10] = system: T-47D breast

SMILES: COc1ccc(C2C3=C(COC3=O)N(CCO)c3cc4c(cc32)OCCO4)cc1OC (stereo not given)
- GI50 [1]: 5.11 µM
- TGI [1]: > 50 µM
- GI50 [2]: 2.02 µM
- TGI [2]: > 50 µM
- GI50 [3]: 1.35 µM
- TGI [3]: > 38.7 µM
- GI50 [4]: 3.84 µM
- TGI [4]: > 50 µM
- GI50 [5]: 6.78 µM
- TGI [5]: 36.5 µM
- GI50 [6]: > 50 µM
- TGI [6]: > 50 µM
- GI50 [7]: 4.3 µM
- TGI [7]: > 50 µM
- GI50 [8]: 1.69 µM
- TGI [8]: > 18 µM
- GI50 [9]: 0.906 µM
- TGI [9]: > 50 µM
- GI50 [10]: 2.17 µM
- TGI [10]: > 50 µM

SMILES: O=C(CC1(O)C(=O)Nc2c(Cl)ccc(Cl)c21)c1ccc(C2CC2)cc1 (stereo not given)
- GI50 [1]: 2.09 µM
- TGI [1]: 19.8 µM
- GI50 [2]: 0.843 µM
- TGI [2]: 20.1 µM
- GI50 [3]: 0.445 µM
- TGI [3]: 15.9 µM
- GI50 [4]: 0.392 µM
- TGI [4]: 14 µM
- GI50 [5]: 2.64 µM
- TGI [5]: 21.8 µM
- GI50 [6]: 3.05 µM
- TGI [6]: 25.5 µM
- GI50 [7]: 2.98 µM
- TGI [7]: 23.4 µM
- GI50 [8]: 0.751 µM
- TGI [8]: 5.79 µM
- GI50 [9]: 1.37 µM
- TGI [9]: 13.8 µM
- GI50 [10]: 1.56 µM
- TGI [10]: 27.1 µM

SMILES: CN(C)CCOc1nc2ccccc2c2c1-c1ccc(Cl)cc1C2=O
- GI50 [1]: 0.458 µM
- TGI [1]: 5.25 µM
- GI50 [2]: 0.363 µM
- TGI [2]: 2.46 µM
- GI50 [3]: 0.441 µM
- TGI [3]: 1.57 µM
- GI50 [4]: 0.416 µM
- TGI [4]: 1.78 µM
- GI50 [5]: 1.1 µM
- TGI [5]: 3 µM
- GI50 [6]: 0.735 µM
- TGI [6]: 8.65 µM
- GI50 [7]: 0.577 µM
- TGI [7]: 2.32 µM
- GI50 [8]: 1.07 µM
- TGI [8]: 2.59 µM
- GI50 [9]: 1.36 µM
- TGI [9]: 2.67 µM
- GI50 [10]: 1.53 µM
- TGI [10]: 4.55 µM

SMILES: COc1cc2c3c(c1O)C1(C=CC(=O)C=C1)CC3N(C)CC2 (stereo not given)
- TGI [1]: > 100 µM
- TGI [2]: 13.8 µM
- TGI [3]: 17.5 µM
- TGI [4]: 9.28 µM
- TGI [5]: 17.4 µM
- TGI [6]: > 100 µM
- TGI [7]: 34.6 µM
- TGI [8]: 28.8 µM
- TGI [9]: 32.6 µM
- TGI [10]: 26.2 µM

SMILES: CCNCCNc1cc(-c2cccc(C(F)(F)F)c2)c(C#N)c2nc3ccccc3n12
- GI50 [1]: 1.48 µM
- TGI [1]: 3 µM
- GI50 [2]: 0.29 µM
- TGI [2]: 0.798 µM
- GI50 [3]: 1.63 µM
- TGI [3]: 3.13 µM
- GI50 [4]: 0.299 µM
- TGI [4]: 1.07 µM
- GI50 [5]: 1.67 µM
- TGI [5]: 3.29 µM
- GI50 [6]: 1.64 µM
- TGI [6]: 3.64 µM
- GI50 [7]: 1.57 µM
- TGI [7]: 3.12 µM
- GI50 [8]: 1.7 µM
- TGI [8]: 3.23 µM
- GI50 [9]: 1.76 µM
- TGI [9]: 3.16 µM
- GI50 [10]: 2.2 µM
- TGI [10]: 4.21 µM

SMILES: CN1CCN(c2ccc3nc4c(nc3c2C(F)(F)F)C(=O)c2ncccc2C4=O)CC1
- GI50 [1]: 1.21 µM
- TGI [1]: 3.92 µM
- GI50 [2]: 2.44 µM
- TGI [2]: 7.32 µM
- GI50 [3]: 2.28 µM
- TGI [3]: 10.9 µM
- GI50 [4]: 1.04 µM
- TGI [4]: 2.66 µM
- GI50 [5]: 2.54 µM
- TGI [5]: 7 µM
- GI50 [6]: 2.13 µM
- TGI [6]: 4.74 µM
- GI50 [7]: 1.66 µM
- TGI [7]: 4.13 µM
- GI50 [8]: 1.51 µM
- TGI [8]: 2.85 µM
- GI50 [9]: 1.43 µM
- TGI [9]: 2.76 µM
- GI50 [10]: 1.96 µM
- TGI [10]: 4.62 µM

SMILES: O=[N+]([O-])c1ccc(-c2ccccc2)c([As](=O)(O)O)c1
- GI50 [1]: 27.2 µM
- TGI [1]: > 100 µM
- GI50 [2]: 4.42 µM
- TGI [2]: 39.9 µM
- GI50 [3]: 39.4 µM
- TGI [3]: > 100 µM
- GI50 [4]: 8.15 µM
- TGI [4]: 46.9 µM
- GI50 [5]: 10 µM
- TGI [5]: 37.4 µM
- GI50 [6]: 18.5 µM
- TGI [6]: 69.4 µM
- GI50 [7]: 9.85 µM
- TGI [7]: 39.2 µM
- GI50 [8]: 13 µM
- TGI [8]: 44.6 µM
- GI50 [9]: 40.6 µM
- TGI [9]: > 100 µM
- GI50 [10]: 4.35 µM
- TGI [10]: 49.5 µM

SMILES: N#CC(C#N)=Cc1ccc(-c2ccc(-c3nc4ccccc4o3)cc2)o1
- GI50 [1]: 28.2 µM
- TGI [1]: > 100 µM
- GI50 [2]: 11.6 µM
- TGI [2]: > 100 µM
- GI50 [3]: 19.4 µM
- TGI [3]: > 100 µM
- GI50 [4]: 16.6 µM
- TGI [4]: 44.8 µM
- GI50 [5]: 19.9 µM
- TGI [5]: 69.5 µM
- GI50 [6]: 21 µM
- TGI [6]: 99.7 µM
- GI50 [7]: 52 µM
- TGI [7]: > 100 µM
- GI50 [8]: 31.1 µM
- TGI [8]: > 100 µM
- GI50 [9]: 13.1 µM
- TGI [9]: 62.5 µM
- GI50 [10]: 5.04 µM
- TGI [10]: 90.1 µM

SMILES: CCN(CC)c1ccc2nc3c4ccccc4c(=NC(=O)c4ccccc4-c4c5ccc(N(CC)CC)cc5[o+]c5cc(N(CC)CC)ccc45)cc-3oc2c1
- GI50 [1]: 1.83 µM
- TGI [1]: 5.08 µM
- GI50 [2]: 2.1 µM
- TGI [2]: 13.4 µM
- GI50 [3]: 2.25 µM
- TGI [3]: 7.94 µM
- GI50 [4]: 1.69 µM
- TGI [4]: 4.49 µM
- GI50 [5]: 1.99 µM
- TGI [5]: 8.91 µM
- GI50 [6]: 15.4 µM
- TGI [6]: 38.8 µM
- GI50 [7]: 4.69 µM
- TGI [7]: 19.4 µM
- GI50 [8]: 3.24 µM
- TGI [8]: 8.73 µM
- GI50 [9]: 1.26 µM
- TGI [9]: 2.68 µM
- GI50 [10]: 5.25 µM
- TGI [10]: 17.3 µM

SMILES: NC(=O)NC(=O)C1CCCCC1C(=O)O (stereo not given)
- TGI [1]: > 100 µM
- TGI [2]: > 100 µM
- TGI [3]: > 100 µM
- TGI [4]: > 100 µM
- TGI [5]: > 100 µM
- TGI [6]: > 100 µM
- TGI [7]: > 100 µM
- TGI [8]: > 100 µM
- TGI [9]: > 100 µM
- TGI [10]: > 100 µM

SMILES: c1cnc2c(c1)Nc1cnncc1S2
- TGI [1]: > 100 µM
- TGI [2]: > 100 µM
- TGI [3]: > 100 µM
- TGI [4]: > 100 µM
- TGI [5]: > 100 µM
- TGI [6]: > 100 µM
- TGI [7]: > 100 µM
- TGI [8]: > 100 µM
- TGI [9]: > 100 µM
- TGI [10]: > 100 µM

SMILES: Nc1cccc2nsnc12
- TGI [1]: > 100 µM
- TGI [2]: > 82.4 µM
- TGI [3]: > 100 µM
- TGI [4]: > 100 µM
- TGI [5]: > 100 µM
- TGI [6]: > 100 µM
- TGI [7]: > 100 µM
- TGI [8]: > 100 µM
- TGI [9]: > 100 µM
- TGI [10]: > 100 µM

SMILES: COC(=O)Nc1nc2ccc(Sc3ccccc3)cc2[nH]1
- GI50 [1]: 0.208 µM
- TGI [1]: 5.96 µM
- GI50 [2]: 0.249 µM
- TGI [2]: > 100 µM
- GI50 [3]: 0.0634 µM
- TGI [3]: 22.3 µM
- GI50 [4]: 0.487 µM
- TGI [4]: 17.2 µM
- GI50 [5]: 0.476 µM
- TGI [5]: 21.5 µM
- GI50 [6]: 0.291 µM
- TGI [6]: 1.7 µM
- GI50 [7]: 1.44 µM
- TGI [7]: 26.9 µM
- GI50 [8]: 0.234 µM
- TGI [8]: 0.933 µM
- GI50 [9]: 0.146 µM
- TGI [9]: 4.08 µM
- GI50 [10]: 0.436 µM
- TGI [10]: > 81.2 µM

SMILES: O=C(/C=C/c1cccc(B(O)O)c1)c1cccc(B(O)O)c1
- GI50 [1]: 2.12 µM
- TGI [1]: 5.81 µM
- GI50 [2]: 0.445 µM
- TGI [2]: 2.67 µM
- GI50 [3]: 1.37 µM
- TGI [3]: 2.79 µM
- GI50 [4]: 0.76 µM
- TGI [4]: 2.03 µM
- GI50 [5]: 1.58 µM
- TGI [5]: 3.17 µM
- GI50 [6]: 1.91 µM
- TGI [6]: 4.14 µM
- GI50 [7]: 1.8 µM
- TGI [7]: 5.56 µM
- GI50 [8]: 1.84 µM
- TGI [8]: 3.73 µM
- GI50 [9]: 1.85 µM
- TGI [9]: 3.83 µM
- GI50 [10]: 2.31 µM
- TGI [10]: 9.58 µM

Source: PubChem BioAssay (NCI)
